Test results reported in patent publication US20060134286A1, “Gallocatechin gallate-containing composition” (Suntory Limited, priority 2002, published 2006).

Tested on: Streptococcus mutans (MT8148R)
Assay: Antibacterial activity against Streptococcus mutans (colony count after 1 hour contact with sample)
Assay type: cell-based
Details: final concentration of the sample 1 mg/mL; 37° C. for 1 hour; colonies counted on MS agar medium after 2 days
Experimental: Streptococcus mutans (MT8148R) was cultured in a brain heart infusion medium (BHI, manufactured by Difco) at 37° C. for 18 hours. After collection of the cells by centrifugation, the precipitate was washed three times with a phosphate buffer solution (PBS, pH 6.8). Then the cells were suspended to give an absorbance of 0.5 at 550 nm. Thus, about 2×10^7 colonies per mL (expressed in colony forming unit: CFU) were formed . Next, an equal amount of a previously prepared sample solution was added to the suspension and the resultant mixture was allowed to stand at 37° C. for 1 hour. 0.1 mL of this liquid mixture or the same mixture seriously 10-fold diluted was sowed on a Mitis salivarius agar medium (MS agar medium, manufactured by Difco). After culturing at 37° C. for 2 days, the colonies thus formed were counted. The antibacterial activity was indicated in the logarithm of CFU of test group/CFU of control lot (i.e., the reducing ratio).
The mixing ratio of EGCG to GCG (manufactured by Sigma) was varied so as to adjust the final concentration of the sample to 1 mg/mL and thus the antibacterial activity was examined. […]

Compound	Antibacterial activity (logarithm of CFU of test group/CFU of control lot, the reducing ratio)
O=C(O[C@@H]1Cc2c(O)cc(O)cc2O[C@H]1c1cc(O)c(O)c(O)c1)c1cc(O)c(O)c(O)c1 [GCG, gallocatechin gallate]	−3.17
(−)-epigallocatechin gallate [EGCG]	−3.50
